Measured values taken from ChEMBL document CHEMBL1201862, “PubChem BioAssay data set” (2004).
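Cells were grown in 96-well plates and exposed to each compound for 48 hours at five concentrations; endpoints were interpolated linearly between bracketing concentrations, or set to the highest concentration if not reached. At the GI50, growth is halved.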 Activity calls are given as the source filed them. No stated cut-off is given here; in the data, active = GI50 up to about 1.1 µM and inactive = higher.

Legend:
Experiment in all cases: inhibition of tumour cell growth, NCI panel, 48 h
[1] = test system: SNB-75
[2] = test system: OVCAR-5
[3] = test system: SK-MEL-5
[4] = test system: T47D
[5] = test system: SN12C
[6] = test system: HCT-15
[7] = test system: UO-31
[8] = test system: K562
[9] = test system: EKVX
[10] = test system: SNB-19
[11] = test system: BT-549
[12] = test system: CCRF-CEM
[13] = test system: PC-3
[14] = test system: OVCAR-3
[15] = test system: SF-268
[16] = test system: U-251
[17] = test system: MDA-N
[18] = test system: A498
[19] = test system: KM12
[20] = test system: HOP-92
[21] = test system: NCI-H23
[22] = test system: HOP-62
[23] = test system: M14
[24] = test system: LOX IMVI
[25] = test system: DU-145
[26] = test system: IGROV-1
[27] = test system: SK-OV-3
[28] = test system: A549
[29] = test system: HCC 2998
[30] = test system: HL-60
[31] = test system: UACC-62
[32] = test system: SF-539
[33] = test system: UACC-257
[34] = test system: NCI-H460
[35] = test system: SK-MEL-28
[36] = test system: OVCAR-4
[37] = test system: RXF 393
[38] = test system: NCI-H226
[39] = test system: MCF7
[40] = test system: 786-0
[41] = test system: MDA-MB-231
[42] = test system: TK-10
[43] = test system: SF-295
[44] = test system: HT-29
[45] = test system: NCI/ADR-RES
[46] = test system: MDA-MB-435
[47] = test system: Malme-3M
[48] = test system: ACHN
[49] = test system: OVCAR-8
[50] = test system: CAKI-1
[51] = test system: NCI-H522
[52] = test system: MOLT-4
[53] = test system: HCT-116
[54] = test system: SR
[55] = test system: COLO 205
[56] = test system: SW-620
[57] = test system: SK-MEL-2
[58] = test system: Hs-578T
[59] = test system: RPMI-8226

SMILES: C[C@]12CC[C@H](O)CC1=CC[C@@H]1C2CC[C@]2(C)Nc3c(cnn3-c3ccc(F)cc3)CC12 (stereo not given in full)
- GI50 [1]: 2.71 µM (inactive)
- GI50 [2]: > 100 µM (inactive)
- GI50 [3]: 25.2 µM (inactive)
- GI50 [4]: > 42.7 µM (inactive)
- GI50 [5]: 37.4 µM (inactive)
- GI50 [6]: > 100 µM
- GI50 [7]: > 39.4 µM (inactive)
- GI50 [8]: 2.25 µM (inactive)
- GI50 [9]: 79.6 µM (inactive)
- GI50 [10]: 19.3 µM (inactive)
- GI50 [11]: 14.4 µM (inactive)
- GI50 [12]: 2.94 µM (inactive)
- GI50 [13]: 14.1 µM (inactive)
- GI50 [14]: 48.5 µM (inactive)
- GI50 [15]: 26.1 µM (inactive)
- GI50 [16]: 6.3 µM (inactive)
- GI50 [17]: > 53.8 µM (inactive)
- GI50 [18]: 2.17 µM (inactive)
- GI50 [19]: 29.4 µM (inactive)
- GI50 [20]: 21.4 µM (inactive)
- GI50 [21]: 26.5 µM (inactive)
- GI50 [22]: 10.8 µM (inactive)
- GI50 [23]: > 100 µM (inactive)
- GI50 [24]: 3.2 µM (inactive)
- GI50 [25]: 32 µM (inactive)
- GI50 [26]: > 100 µM (inactive)
- GI50 [27]: 15.7 µM (inactive)
- GI50 [28]: 52.1 µM (inactive)
- GI50 [29]: > 68.2 µM (inactive)
- GI50 [30]: 4.12 µM (inactive)
- GI50 [31]: 14.6 µM (inactive)
- GI50 [32]: 1.46 µM (inactive)
- GI50 [33]: 60.8 µM (inactive)
- GI50 [34]: 3.51 µM (inactive)
- GI50 [35]: 3.49 µM (inactive)
- GI50 [36]: 19 µM (inactive)
- GI50 [37]: 2.25 µM (inactive)
- GI50 [38]: 40.9 µM (inactive)
- GI50 [39]: > 52.2 µM (inactive)
- GI50 [40]: 3.09 µM (inactive)
- GI50 [41]: > 41.8 µM (inactive)
- GI50 [42]: 78.2 µM (inactive)
- GI50 [43]: 2.43 µM (inactive)
- GI50 [44]: 5.94 µM (inactive)
- GI50 [45]: 21.5 µM (inactive)
- GI50 [46]: 41.2 µM (inactive)
- GI50 [47]: 14.2 µM (inactive)
- GI50 [48]: 16 µM (inactive)
- GI50 [49]: 23.3 µM (inactive)
- GI50 [50]: 64.6 µM (inactive)
- GI50 [51]: 48.1 µM (inactive)
- GI50 [52]: 3.48 µM (inactive)
- GI50 [53]: 14.7 µM (inactive)
- GI50 [54]: > 100 µM (inactive)

SMILES: CN(CCSCCN(C)C(=O)OC(C)(C)C)C(=O)OC(C)(C)C
- GI50 [1]: 61.5 µM (inactive)
- GI50 [2]: > 100 µM (inactive)
- GI50 [3]: > 100 µM (inactive)
- GI50 [5]: > 100 µM (inactive)
- GI50 [6]: > 100 µM
- GI50 [7]: > 100 µM (inactive)
- GI50 [8]: > 100 µM (inactive)
- GI50 [9]: > 100 µM (inactive)
- GI50 [10]: > 100 µM (inactive)
- GI50 [11]: > 100 µM (inactive)
- GI50 [12]: > 100 µM (inactive)
- GI50 [55]: > 100 µM (inactive)
- GI50 [13]: > 100 µM (inactive)
- GI50 [14]: > 100 µM (inactive)
- GI50 [15]: > 100 µM (inactive)
- GI50 [16]: > 100 µM (inactive)
- GI50 [17]: > 100 µM (inactive)
- GI50 [19]: > 100 µM (inactive)
- GI50 [56]: > 100 µM (inactive)
- GI50 [57]: > 100 µM (inactive)
- GI50 [20]: > 100 µM (inactive)
- GI50 [21]: > 100 µM (inactive)
- GI50 [22]: > 100 µM (inactive)
- GI50 [23]: > 100 µM (inactive)
- GI50 [24]: > 100 µM (inactive)
- GI50 [25]: > 100 µM (inactive)
- GI50 [26]: > 100 µM (inactive)
- GI50 [27]: > 100 µM (inactive)
- GI50 [28]: > 100 µM (inactive)
- GI50 [29]: > 100 µM (inactive)
- GI50 [31]: > 100 µM (inactive)
- GI50 [32]: > 100 µM (inactive)
- GI50 [33]: > 100 µM (inactive)
- GI50 [34]: > 100 µM (inactive)
- GI50 [35]: > 100 µM (inactive)
- GI50 [36]: > 100 µM (inactive)
- GI50 [39]: > 100 µM (inactive)
- GI50 [40]: > 100 µM (inactive)
- GI50 [41]: > 100 µM (inactive)
- GI50 [42]: > 100 µM (inactive)
- GI50 [43]: > 100 µM (inactive)
- GI50 [44]: > 100 µM (inactive)
- GI50 [45]: > 100 µM (inactive)
- GI50 [46]: > 100 µM (inactive)
- GI50 [47]: > 100 µM (inactive)
- GI50 [48]: > 100 µM (inactive)
- GI50 [49]: > 100 µM (inactive)
- GI50 [50]: > 100 µM (inactive)
- GI50 [51]: > 100 µM (inactive)
- GI50 [58]: > 100 µM (inactive)
- GI50 [52]: > 100 µM (inactive)
- GI50 [53]: > 100 µM (inactive)
- GI50 [54]: > 100 µM (inactive)

SMILES: O=C(N/N=C\C(F)(F)F)c1ccncc1
- GI50 [59]: > 100 µM (inactive)
- GI50 [1]: 32.2 µM (inactive)
- GI50 [2]: > 100 µM (inactive)
- GI50 [3]: 20.5 µM (inactive)
- GI50 [5]: 92.3 µM (inactive)
- GI50 [6]: 26.9 µM
- GI50 [7]: 83.6 µM (inactive)
- GI50 [8]: 7.62 µM (inactive)
- GI50 [10]: 71.9 µM (inactive)
- GI50 [11]: > 100 µM (inactive)
- GI50 [12]: 3.48 µM (inactive)
- GI50 [55]: 6.14 µM (inactive)
- GI50 [13]: 26.9 µM (inactive)
- GI50 [14]: 22.3 µM (inactive)
- GI50 [16]: 26.9 µM (inactive)
- GI50 [18]: 46.9 µM (inactive)
- GI50 [19]: 8.09 µM (inactive)
- GI50 [56]: 37.8 µM (inactive)
- GI50 [57]: > 100 µM (inactive)
- GI50 [20]: > 100 µM (inactive)
- GI50 [21]: 8.36 µM (inactive)
- GI50 [22]: 24.7 µM (inactive)
- GI50 [23]: 26 µM (inactive)
- GI50 [24]: > 100 µM (inactive)
- GI50 [25]: 8.57 µM (inactive)
- GI50 [26]: 35.2 µM (inactive)
- GI50 [27]: 31.6 µM (inactive)
- GI50 [29]: 18.5 µM (inactive)
- GI50 [30]: > 100 µM (inactive)
- GI50 [31]: 37.2 µM (inactive)
- GI50 [33]: 49.3 µM (inactive)
- GI50 [34]: 19.9 µM (inactive)
- GI50 [35]: 80.7 µM (inactive)
- GI50 [36]: > 100 µM (inactive)
- GI50 [37]: 13.9 µM (inactive)
- GI50 [38]: 62.2 µM (inactive)
- GI50 [39]: 86.3 µM (inactive)
- GI50 [42]: 22.8 µM (inactive)
- GI50 [43]: 30.5 µM (inactive)
- GI50 [44]: 7.59 µM (inactive)
- GI50 [45]: > 100 µM (inactive)
- GI50 [46]: 9.59 µM (inactive)
- GI50 [47]: > 100 µM (inactive)
- GI50 [49]: 48.2 µM (inactive)
- GI50 [50]: 42.8 µM (inactive)
- GI50 [58]: 38.6 µM (inactive)
- GI50 [52]: 21.4 µM (inactive)
- GI50 [54]: 35.2 µM (inactive)

SMILES: CC(C)(C)c1c(C(C)(C)C)c(=O)c1=O
- GI50 [59]: > 100 µM (inactive)
- GI50 [1]: > 100 µM (inactive)
- GI50 [2]: > 100 µM (inactive)
- GI50 [3]: > 100 µM (inactive)
- GI50 [5]: > 100 µM (inactive)
- GI50 [6]: > 100 µM
- GI50 [7]: > 100 µM (inactive)
- GI50 [8]: > 100 µM (inactive)
- GI50 [9]: > 100 µM (inactive)
- GI50 [10]: > 100 µM (inactive)
- GI50 [11]: > 100 µM (inactive)
- GI50 [12]: > 100 µM (inactive)
- GI50 [55]: > 100 µM (inactive)
- GI50 [13]: > 100 µM (inactive)
- GI50 [14]: > 100 µM (inactive)
- GI50 [15]: > 100 µM (inactive)
- GI50 [16]: > 100 µM (inactive)
- GI50 [17]: > 100 µM (inactive)
- GI50 [18]: 86.1 µM (inactive)
- GI50 [19]: > 100 µM (inactive)
- GI50 [56]: > 100 µM (inactive)
- GI50 [57]: > 100 µM (inactive)
- GI50 [20]: > 100 µM (inactive)
- GI50 [21]: > 100 µM (inactive)
- GI50 [22]: > 100 µM (inactive)
- GI50 [23]: > 100 µM (inactive)
- GI50 [24]: > 100 µM (inactive)
- GI50 [25]: > 100 µM (inactive)
- GI50 [27]: > 100 µM (inactive)
- GI50 [28]: > 100 µM (inactive)
- GI50 [29]: > 100 µM (inactive)
- GI50 [30]: > 100 µM (inactive)
- GI50 [31]: > 100 µM (inactive)
- GI50 [32]: > 100 µM (inactive)
- GI50 [33]: > 100 µM (inactive)
- GI50 [34]: > 100 µM (inactive)
- GI50 [35]: > 100 µM (inactive)
- GI50 [36]: > 100 µM (inactive)
- GI50 [37]: > 100 µM (inactive)
- GI50 [38]: > 100 µM (inactive)
- GI50 [39]: > 100 µM (inactive)
- GI50 [40]: > 100 µM (inactive)
- GI50 [41]: > 100 µM (inactive)
- GI50 [42]: > 100 µM (inactive)
- GI50 [43]: > 100 µM (inactive)
- GI50 [44]: > 100 µM (inactive)
- GI50 [45]: > 100 µM (inactive)
- GI50 [46]: > 100 µM (inactive)
- GI50 [47]: > 100 µM (inactive)
- GI50 [48]: > 100 µM (inactive)
- GI50 [49]: > 100 µM (inactive)
- GI50 [50]: > 100 µM (inactive)
- GI50 [58]: > 100 µM (inactive)
- GI50 [52]: > 100 µM (inactive)
- GI50 [53]: > 100 µM (inactive)
